Test results published in patent US20140155406A1, “4-IMIDAZOPYRIDAZIN-1-YL-BENZAMIDES AND 4-IMIDAZOTRIAZIN-1-YL-BENZAMIDES BTK INHIBITORS” (priority 2011, published 2014).

Legend:
Format in all cases: biochemical
[1] = target: T1, Lyn enzyme (Homo sapiens, UniProt P07948); assay: Lyn enzyme activity, IMAP fluorescence polarization assay; conditions: 60 min pre-incubation, 2 μM ATP (Km)
T1 construct: purchased Millipore 14-510
Procedure: Lyn enzyme activity is measured using the IMAP (immobilized metal ion affinity-based fluorescence polarization) assay as outlined below.
Lyn enzyme (Millipore catalog#14-510), is diluted to 250 mU/mL in KR buffer (10 mM Tris-HCl, 10 mM MgCl2, 0.01% Tween-20, 0.05% NaN3, 1 mM DTT, 2 mM MnCl2, pH 7.2). Serial dilution log 10 from 2 mM to 63.2 nM of test compounds are made in 100% DMSO. The dilutions in DMSO are then diluted 50-fold in KR-buffer of which 5 μl is used in the assay, leading to a final compound concentration range in the assay from 10 μM to 0.316 nM. 5 μL/well of test compound in KR buffer (final DMSO concentration in the assay is 1%) is mixed with 5 μl/well of 250 mU/mL Lyn enzyme (final concentration in the assay is 62.5 mU/mL). Test compounds and Lyn enzyme are pre-incubated 60 minutes at room temperature, before adding 5 μL/well of 400 nM Fluorescin labeled substrate peptide (Blk/Lyntide substrate, e.g. #R7188/#R7233, Molecular Devices) in KR-buffer. Final peptide substrate concentration in assay is 100 nM. The kinase assay is started by adding 5 μL/well of 8 μM ATP in KR-buffer (final ATP concentration is 2 μM ATP, Km ATP in Lyn IMAP assay). Following incubation for 2 h at room temperature the enzyme reaction is stopped by adding 40 μL/well IMAP Progressive Binding Solution (according to suppliers (Molecular Devices) protocol using 75% 1× buffer A and 25% 1× buffer B with 1:600 Progressive Binding Solution). After 60 min incubation at room temperature in the dark the FP signal is read. Fluorescence at 535 nm is measured using parallel and perpendicular filters to determine differences in rotation due to binding of the phosphorylated substrate peptide to the beads. Values are calculated as percentage of the difference in readout (ΔmPi) of the controls with and without ATP. EC50 values are determined by curve fitting of the experimental results using Activity Base.

[2] = target: T2, Src enzyme (Homo sapiens, UniProt P12931); assay: Src enzyme activity, IMAP fluorescence polarization assay; conditions: 60 min pre-incubation, 4 μM ATP (Km)
T2 construct: purchased Millipore 14-326
T2 sequence (P12931 whole entry): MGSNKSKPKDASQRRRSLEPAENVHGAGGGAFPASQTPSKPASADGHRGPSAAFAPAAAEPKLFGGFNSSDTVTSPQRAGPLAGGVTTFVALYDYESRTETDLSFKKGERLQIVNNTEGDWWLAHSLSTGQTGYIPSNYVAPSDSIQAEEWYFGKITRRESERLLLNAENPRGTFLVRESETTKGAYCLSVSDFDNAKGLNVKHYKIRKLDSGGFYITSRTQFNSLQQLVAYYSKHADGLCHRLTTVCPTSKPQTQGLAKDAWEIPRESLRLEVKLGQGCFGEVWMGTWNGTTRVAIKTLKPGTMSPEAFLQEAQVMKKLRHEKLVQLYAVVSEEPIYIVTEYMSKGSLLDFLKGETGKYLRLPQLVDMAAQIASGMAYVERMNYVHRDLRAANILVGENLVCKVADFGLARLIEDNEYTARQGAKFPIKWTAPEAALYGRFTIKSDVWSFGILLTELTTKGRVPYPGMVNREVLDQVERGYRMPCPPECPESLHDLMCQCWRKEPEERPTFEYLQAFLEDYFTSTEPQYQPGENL
Procedure: Src enzyme activity is measured using the IMAP (immobilized metal ion affinity-based fluorescence polarization) assay as outlined below.
Src enzyme (Millipore catalog#14-326), is diluted to 0.8 U/mL in KR buffer (10 mM Tris-HCl, 10 mM MgCl2, 0.01% Tween-20, 0.05% NaN3, 1 mM DTT, 2 mM MnCl2, pH 7.2).
Serial dilution log 10 from 2 mM to 63.2 nM of test compounds are made in 100% DMSO. The dilutions in DMSO are then diluted 50-fold in KR-buffer of which 5 μl is used in the assay, leading to a final compound concentration range in the assay from 10 μM to 0.316 nM. 5 μL/well of test compound in KR buffer (final DMSO concentration in the assay is 1%) is mixed with 5 μl/well of 0.8 U/mL Src enzyme (final concentration in the assay is 0.2 U/mL). Test compounds and Src enzyme are pre-incubated 60 minutes at room temperature, before adding 5 μL/well of 400 nM Fluorescin labeled substrate peptide (p34cdc2 substrate peptide, e.g. #R7157/#R7172, Molecular Devices) in KR-buffer. Final peptide substrate concentration in assay is 100 nM. The kinase assay is started by adding 5 μL/well of 16 μM ATP in KR-buffer (final ATP concentration is 4 μM ATP, Km ATP in Src IMAP assay). Following incubation for 2 h at room temperature the enzyme reaction is stopped by adding 40 μL/well IMAP Progressive Binding Solution (according to suppliers (Molecular Devices) protocol using 75% 1× buffer A and 25% 1× buffer B with 1:600 Progressive Binding Solution). After 60 min incubation at room temperature in the dark the FP signal is read. Fluorescence at 535 nm is measured using parallel and perpendicular filters to determine differences in rotation due to binding of the phosphorylated substrate peptide to the beads. Values are calculated as percentage of the difference in readout (ΔmPi) of the controls with and without ATP. EC50 values are determined by curve fitting of the experimental results using Activity Base.

[3] = target: T3, Lck enzyme (Homo sapiens, UniProt P06239); assay: Lck enzyme activity, IMAP fluorescence polarization assay; conditions: 60 min pre-incubation, 6 μM ATP (Km)
T3 construct: purchased Millipore 14-442
T3 sequence (P06239 whole entry): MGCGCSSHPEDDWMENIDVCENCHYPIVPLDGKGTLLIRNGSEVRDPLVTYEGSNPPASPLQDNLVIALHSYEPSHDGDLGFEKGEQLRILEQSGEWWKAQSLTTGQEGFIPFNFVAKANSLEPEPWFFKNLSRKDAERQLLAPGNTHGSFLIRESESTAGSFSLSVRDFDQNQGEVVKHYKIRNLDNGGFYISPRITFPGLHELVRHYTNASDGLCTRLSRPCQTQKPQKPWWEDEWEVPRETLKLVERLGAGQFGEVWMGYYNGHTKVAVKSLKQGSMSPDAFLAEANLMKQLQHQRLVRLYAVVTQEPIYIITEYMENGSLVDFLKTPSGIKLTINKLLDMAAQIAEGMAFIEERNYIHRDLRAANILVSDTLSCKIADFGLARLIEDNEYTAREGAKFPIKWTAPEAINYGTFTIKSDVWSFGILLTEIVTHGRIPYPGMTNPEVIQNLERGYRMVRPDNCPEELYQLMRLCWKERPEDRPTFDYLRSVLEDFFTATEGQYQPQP
Procedure: Lck enzyme activity is measured using the IMAP (immobilized metal ion affinity-based fluorescence polarization) assay as outlined below.
Lck enzyme (Millipore catalog#14-442), is diluted to 0.4 U/mL in KR buffer (10 mM Tris-HCl, 10 mM MgCl2, 0.01% Tween-20, 0.05% NaN3, 1 mM DTT, 2 mM MnCl2, pH 7.2). Serial dilution log 10 from 2 mM to 63.2 nM of test compounds are made in 100% DMSO. The dilutions in DMSO are then diluted 50-fold in KR-buffer of which 5 μl is used in the assay, leading to a final compound concentration range in the assay from 10 μM to 0.316 nM. 5 μL/well of test compound in KR buffer (final DMSO concentration in the assay is 1%) is mixed with 5 μl/well of 0.4 U/mL Lck enzyme (final concentration in the assay is 0.1 U/mL). Test compounds and Lck enzyme are pre-incubated 60 minutes at room temperature, before adding 5 μL/well of 400 nM Fluorescin labeled substrate peptide (p34cdc2 substrate peptide, e.g. #R7157/#R7172, Molecular Devices) in KR-buffer. Final peptide substrate concentration in assay is 100 nM. The kinase assay is started by adding 5 μL/well of 24 μM ATP in KR-buffer (final ATP concentration is 6 μM ATP, Km ATP in Lck IMAP assay). Following incubation for 2 h at room temperature the enzyme reaction is stopped by adding 40 μL/well IMAP Progressive Binding Solution (according to suppliers (Molecular Devices) protocol using 75% 1× buffer A and 25% 1× buffer B with 1:600 Progressive Binding Solution). After 60 min incubation at room temperature in the dark the FP signal is read. Fluorescence at 535 nm is measured using parallel and perpendicular filters to determine differences in rotation due to binding of the phosphorylated substrate peptide to the beads. Values are calculated as percentage of the difference in readout (ΔmPi) of the controls with and without ATP. EC50 values are determined by curve fitting of the experimental results using Activity Base.

[4] = target: T4, FynT enzyme (Homo sapiens, UniProt P06241); assay: FynT enzyme activity, IMAP fluorescence polarization assay; conditions: 60 min pre-incubation, 0.2 μM ATP (Km)
T4 construct: purchased Biomol SE-287
T4 sequence (P06241 1-534 isoform P06241-2): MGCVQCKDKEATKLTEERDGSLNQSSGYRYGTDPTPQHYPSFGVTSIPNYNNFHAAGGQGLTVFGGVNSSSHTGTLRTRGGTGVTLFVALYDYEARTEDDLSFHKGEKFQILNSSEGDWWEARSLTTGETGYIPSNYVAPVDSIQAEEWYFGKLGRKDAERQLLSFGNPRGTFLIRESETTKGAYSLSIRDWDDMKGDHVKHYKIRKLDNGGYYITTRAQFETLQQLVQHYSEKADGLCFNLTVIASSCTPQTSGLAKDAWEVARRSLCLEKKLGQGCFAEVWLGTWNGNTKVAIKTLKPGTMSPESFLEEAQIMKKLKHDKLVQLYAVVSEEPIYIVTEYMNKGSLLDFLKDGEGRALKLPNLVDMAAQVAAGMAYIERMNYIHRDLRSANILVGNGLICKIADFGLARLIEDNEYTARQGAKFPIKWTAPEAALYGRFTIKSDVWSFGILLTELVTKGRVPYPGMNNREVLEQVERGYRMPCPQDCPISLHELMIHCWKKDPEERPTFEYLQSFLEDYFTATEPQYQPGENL
Procedure: FynT enzyme activity is measured using the IMAP (immobilized metal ion affinity-based fluorescence polarization) assay as outlined below.
FynT enzyme (Biomol catalog# SE-287), is diluted to 0.5 μg/mL in KR buffer (10 mM Tris-HCl, 10 mM MgCl2, 0.01% Tween-20, 0.05% NaN3, 1 mM DTT, 2 mM MnCl2, pH 7.2). Serial dilution log 10 from 2 mM to 63.2 nM of test compounds are made in 100% DMSO. The dilutions in DMSO are then diluted 50-fold in KR-buffer of which 5 μl is used in the assay, leading to a final compound concentration range in the assay from 10 μM to 0.316 nM. 5 μL/well of test compound in KR buffer (final DMSO concentration in the assay is 1%) is mixed with 5 μl/well of 0.5 μg/mL FynT enzyme (final concentration in the assay is 125 ng/mL). Test compounds and FynT enzyme are pre-incubated 60 minutes at room temperature, before adding 5 μL/well of 400 nM Fluorescin labeled substrate peptide (p34cdc2 substrate peptide, e.g. #R7157/#R7172, Molecular Devices) in KR-buffer. Final peptide substrate concentration in assay is 100 nM. The kinase assay is started by adding 5 μL/well of 0.8 μM ATP in KR-buffer (final ATP concentration is 0.2 μM ATP, Km ATP in FynT IMAP assay). Following incubation for 2 h at room temperature the enzyme reaction is stopped by adding 40 μL/well IMAP Progressive Binding Solution (according to suppliers (Molecular Devices) protocol using 75% 1× buffer A and 25% 1× buffer B with 1:600 Progressive Binding Solution). After 60 min incubation at room temperature in the dark the FP signal is read. Fluorescence at 535 nm is measured using parallel and perpendicular filters to determine differences in rotation due to binding of the phosphorylated substrate peptide to the beads. Values are calculated as percentage of the difference in readout (ΔmPi) of the controls with and without ATP. EC50 values are determined by curve fitting of the experimental results using Activity Base.

Measured: EC50

T1 sequence (P07948 whole entry): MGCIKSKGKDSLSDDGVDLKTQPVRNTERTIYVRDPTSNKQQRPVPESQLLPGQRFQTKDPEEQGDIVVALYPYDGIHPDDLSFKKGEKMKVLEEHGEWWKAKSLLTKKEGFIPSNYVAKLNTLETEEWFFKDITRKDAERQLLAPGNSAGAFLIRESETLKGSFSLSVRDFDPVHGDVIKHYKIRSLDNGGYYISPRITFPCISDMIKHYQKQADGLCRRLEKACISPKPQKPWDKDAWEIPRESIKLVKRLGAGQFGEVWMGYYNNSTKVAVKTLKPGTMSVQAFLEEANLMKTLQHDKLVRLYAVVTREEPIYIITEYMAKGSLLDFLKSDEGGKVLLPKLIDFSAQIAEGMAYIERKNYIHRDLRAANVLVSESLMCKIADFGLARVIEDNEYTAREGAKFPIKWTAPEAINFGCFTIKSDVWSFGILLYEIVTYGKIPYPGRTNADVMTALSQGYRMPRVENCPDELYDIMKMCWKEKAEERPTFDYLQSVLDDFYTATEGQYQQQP

CCCc1ccnc(NC(=O)c2ccc(-c3nc([C@H](C)N(C)C(=O)/C=C/COC)n4ccnc(C)c34)cc2)c1 [Example 39, (S,E)-4-(3-(1-(4-methoxy-N-methylbut-2-enamido)ethyl)-8-methylimidazo[1,5-a]pyrazin-1-yl)-N-(4-propylpyridin-2-yl)benzamide]
≥ 1 µM: all assays above

CCCc1ccnc(NC(=O)c2ccc(-c3nc([C@@H]4CCCCN4C(=O)/C=C/COC)n4ccnc(C)c34)cc2)c1 [Example 34, (S,E)-4-(3-(1-(4-methoxybut-2-enoyl)piperidin-2-yl)-8-methylimidazo[1,5-a]pyrazin-1-yl)-N-(4-propylpyridin-2-yl)benzamide]
≥ 1 µM: all assays above

COC/C=C/C(=O)N1CCCC[C@H]1c1nc(-c2ccc(C(=O)Nc3cc(C(F)(F)F)ccn3)cc2)c2c(C)nccn12 [Example 30, (S,E)-4-(3-(1-(4-methoxybut-2-enoyl)piperidin-2-yl)-8-methylimidazo[1,5-a]pyrazin-1-yl)-N-(4-(trifluoromethyl)pyridin-2-yl)benzamide]
≥ 1 µM: all assays above

C=CC(=O)N1CCC[C@H]1c1nc(-c2ccc(C(=O)Nc3cc(C)ccn3)cc2)c2c(C)nccn12 [Example 11, (S)-4-(3-(1-Acryloylpyrrolidin-2-yl)-8-methylimidazo[1,5-a]pyrazin-1-yl)-N-(4-methylpyridin-2-yl)benzamide]
≥ 1 µM: all assays above

CC#CC(=O)N1CCC[C@H]1c1nc(-c2ccc(C(=O)Nc3cc(CC)ccn3)cc2)c2c(C)nccn12 [Example 20, (S)-4-(3-(1-but-2-ynoylpyrrolidin-2-yl)-8-methylimidazo[1,5-a]pyrazin-1-yl)-N-(4-ethylpyridin-2-yl)benzamide]
≥ 1 µM: all assays above

C=CC(=O)N1CCC[C@H]1c1nc(-c2ccc(C(=O)Nc3cc(OC)ccn3)cc2)c2c(C)nccn12 [Example 12, (S)-4-(3-(1-acryloylpyrrolidin-2-yl)-8-methylimidazo[1,5-a]pyrazin-1-yl)-N-(4-methoxypyridin-2-yl)benzamide]
≥ 1 µM: all assays above

CC#CC(=O)N1CCC[C@H]1c1nc(-c2ccc(C(=O)Nc3ccccn3)cc2)c2c(C)nccn12 [Example 1, (S)-4-(3-(1-But-2-ynoylpyrrolidin-2-yl)-8-methylimidazo[1,5-a]pyrazin-1-yl)-N-(pyridin-2-yl)benzamide]
≥ 1 µM: all assays above

Cc1nccn2c([C@@H]3CCCCN3C(=O)c3ccnc(Cl)n3)nc(-c3ccc(C(=O)Nc4cc(C(F)(F)F)ccn4)cc3)c12 [Example 17, (S)-4-(3-(1-(2-chloropyrimidine-4-carbonyl)piperidin-2-yl)-8-methylimidazo[1,5-a]pyrazin-1-yl)-N-(4-(trifluoromethyl)pyridin-2-yl)benzamide]
≥ 1 µM: all assays above

CC#CC(=O)N1CCC[C@H]1c1nc(-c2ccc(C(=O)Nc3cc(OC)ccn3)cc2)c2c(C)nccn12 [Example 16, (S)-4-(3-(1-but-2-ynoylpyrrolidin-2-yl)-8-methylimidazo[1,5-a]pyrazin-1-yl)-N-(4-methoxypyridin-2-yl)benzamide]
≥ 1 µM: all assays above

C=CC(=O)N1CCC[C@H]1c1nc(-c2ccc(C(=O)Nc3cc(CC)ccn3)cc2)c2c(C)nccn12 [Example 14, (S)-4-(3-(1-Acryloylpyrrolidin-2-yl)-8-methylimidazo[1,5-a]pyrazin-1-yl)-N-(4-ethylpyridin-2-yl)benzamide]
≥ 1 µM: all assays above
